Where two headings read alike, the source gives them in different places.
Legend:
rat MCAO model = assay: Brain infarction volume and brain edema volume in rats with local brain ischemia (MCAO model); assay type: in vivo, Wistar rats; conditions: sodium salt
Source text: Wistar rats (50% of rats is female and another 50% of rats is male); 5-bromo-2-(α-hydroxypentyl)benzoic acid sodium salt (BZP, in the form of amorphous form, crystal form A and crystal form B, prepared according to the present invention), prepared in double distilled water; […] is in the form of white powder, manufactured by Beijing Chemical Works.
Administration method: 5-bromo-2-(α-hydroxypentyl)benzoic acid sodium salt (BZP) was intravenously injected at one hour before MCAO, with the dosage of 12 mg/kg; 5-bromo-2-(α-hydroxypentyl)benzoic acid sodium salt (BZP) was used to intragastric administration at one hour before MCAO, with the dosage of 20 mg/kg. 2-(α-hydroxypentyl)benzoic acid potassium salt (NBP-K) was used as positive control, and its dosage (calculated in moles) is the same as that of 5-bromo-2-(α-hydroxypentyl)benzoic acid sodium salt, that is, the dosage of intravenous injection is 9.6 mg/kg, and the dosage of intragastric administration is 15.9 mg/kg.
Preparation of MCAO model: Establish a focal brain ischemia-reperfusion injury model by cerebral artery obstruction in rats with suture-occluded method. Rats were intraperitoneally injected with 10% chloral hydrate to anesthetize. Rats were fixed on back and the skin of neck center was incised. The left common carotid artery, external carotid artery, and internal carotid artery were subjected to blunt dissection. The pterygopalatine artery was ligated, only remaining cranial trunk of internal carotid artery; a prepared nylon rope (burning diameter 0.3 mm) was inserted via external carotid artery incision into the bifurcation of the […], and was pushed along the cranial direction of the internal carotid artery. […] This indicates one side of the middle cerebral artery occlusion model was completed. Sutured the incision, remained the end of nylon line out of the skin. For reperfusion, the nylon line was gently pulled out. If feel force of resistance, this indicates the end of nylon line has returned to the trunk of external carotid artery, thereby accomplishing reperfusion.
Determination of infarction volume: After being subjected to ischemia for 2 hours and reperfusion for 24 hours, the heads of rats were cut off. Forebrain was removed and cut into six pieces, each piece being 2 mm. The pieces were stained with TC, and incubated at 37° C. for 30 minutes. Normal issues were stained to be red, but the infarcted issues were stained to be white. Took photos with digital camera, and calculated the percentage of the infarcted area relative to the spherical area of brain by Photoshop.

[1] = test system: liver and kidney functions in rats; assay: Sub-acute toxic effect on liver and kidney functions in rats; assay type: in vivo; design: AST: unit not given here; conditions: for Albumin (ALB) / Total Proteins (TP): in g/L (unit assumed); for Creatinine (CRE): in µmol/L (unit assumed)
blood routine tests = assay: Sub-acute toxic effect on blood routine tests; assay type: in vivo, Rat; design: WBC / RBC: unit not given beside the values; conditions: for PLT: in 10^9/L (unit assumed); for Lymphocyte (LYM): in % (unit assumed); for HGB: in g/L (unit assumed)
[2] = test system: blood coagulation functions in rats; assay: Sub-acute toxic effect on blood coagulation functions in rats; assay type: in vivo
[3] = Solubility in water and methanol; assay type: physicochemical
[4] = Stability in water and methanol solution; assay type: physicochemical; conditions: sodium salt
Rat = assay: Sub-acute toxicity, rat
[5] = Acute toxicity (LD50), rat; conditions: in vivo
[6] = Acute toxicity (LD50), mouse; conditions: in vivo
[7] = intragastric administration one hour before MCAO, BZP 20 mg/kg, NBP-K 15.9 mg/kg
[8] = intravenous injection one hour before MCAO, 12 mg/kg, 12 mg/kg
[9] = rats F, iv (12 mg/kg), in U/L (unit assumed)

In the case of `CCCCC(O)c1ccc(Br)cc1C(=O)[O-].[Na+]` (stereo not drawn) [BZP (amorphous form), 5-bromo-2-(α-hydroxypentyl)benzoic acid sodium salt], the “Edema (%)” value (rat MCAO model; [7]) is reported as 2.24 ± 1.66^aa** %, the “Infarction volume (%)” value (rat MCAO model; [7]) is reported as 5.59 ± 2.35 aa % and the “Inhibition of edema (%)” value (rat MCAO model; [7]) is reported as 88.36%. For the same compound, the “Inhibition of infarction volume (%)” value (rat MCAO model; [7]) was 89.05%, the “Edema (%)” value (rat MCAO model; [8]) was 2.56 ± 1.63 aa % and the “Inhibition of edema (%)” value (rat MCAO model; [8]) was 88.58%. For the same compound, the “Infarction volume (%)” value (rat MCAO model; intravenous injection one hour before MCAO, BZP 12 mg/kg, NBP-K 9.6 mg/kg, ischemia 2 hours, reperfusion 24 hours) was 3.46 ± 2.94 aa %, the “Inhibition of infarction volume (%)” value (rat MCAO model; intravenous injection one hour before MCAO, BZP 12 mg/kg, NBP-K 9.6 mg/kg) was 93.52% and the AST ([1]; rats F, ig (20 mg/kg)) was 168.00 ± 17.19. The “Blood urea nitrogen (BUN)” value ([1]; rats F, ig (20 mg/kg)) was 3.80 ± 0.59, the “Total Bilirubin (TBIL)” value ([1]; rats F, ig (20 mg/kg)) was 2.10 ± 0.40 and the “Creatinine kinase (CK)” value ([1]; rats F, ig (20 mg/kg), in U/L (unit assumed)) was 776.00 ± 437.68. For the same compound, the “Albumin (ALB)” value ([1]; rats F, ig (20 mg/kg)) was 32.43 ± 1.14, the “Total Proteins (TP)” value ([1]; rats F, ig (20 mg/kg)) was 46.63 ± 1.07 and the “Creatinine (CRE)” value ([1]; rats F, ig (20 mg/kg)) was 57.50 ± 3.11. For the same compound, the AST ([1]; rats F, iv (12 mg/kg)) was 202.40 ± 68.12, the “Blood urea nitrogen (BUN)” value ([1]; rats F, iv (12 mg/kg)) was 4.00 ± 0.43 and the “Total Bilirubin (TBIL)” value ([1]; rats F, iv (12 mg/kg)) was 2.72 ± 0.67. The ALT [1, 9] was 38.00 ± 9.82, the “Creatinine kinase (CK)” value [1, 9] was 636.80 ± 536.05 and the “Albumin (ALB)” value ([1]; rats F, iv (12 mg/kg)) was 33.96 ± 1.71. The “Total Proteins (TP)” value ([1]; rats F, iv (12 mg/kg)) was 49.00 ± 0.79, the “Creatinine (CRE)” value ([1]; rats F, iv (12 mg/kg)) was 55.40 ± 2.30 and the AST ([1]; rats M, ig (20 mg/kg)) was 4.92 ± 0.75. For the same compound, the “Blood urea nitrogen (BUN)” value ([1]; rats M, ig (20 mg/kg)) was 2.76 ± 1.09, the “Total Bilirubin (TBIL)” value ([1]; rats M, ig (20 mg/kg)) was 2.24 ± 1.50 and the “Creatinine kinase (CK)” value ([1]; rats M, ig (20 mg/kg), in U/L (unit assumed)) was 938.60 ± 553.43. For the same compound, the “Albumin (ALB)” value ([1]; rats M, ig (20 mg/kg)) was 28.98 ± 7.34, the “Total Proteins (TP)” value ([1]; rats M, ig (20 mg/kg)) was 40.26 ± 15.78 and the “Creatinine (CRE)” value ([1]; rats M, ig (20 mg/kg)) was 38.80 ± 25.62. The AST ([1]; rats M, iv (12 mg/kg)) was 5.34 ± 1.33, the “Blood urea nitrogen (BUN)” value ([1]; rats M, iv (12 mg/kg)) was 3.46 ± 0.72 and the “Total Bilirubin (TBIL)” value ([1]; rats M, iv (12 mg/kg)) was 3.10 ± 1.23. For the same compound, the “Creatinine kinase (CK)” value ([1]; rats M, iv (12 mg/kg), in U/L (unit assumed)) was 762.00 ± 351.72, the “Albumin (ALB)” value ([1]; rats M, iv (12 mg/kg)) was 36.90 ± 6.72 and the “Total Proteins (TP)” value ([1]; rats M, iv (12 mg/kg)) was 53.40 ± 8.69. For the same compound, the “Creatinine (CRE)” value ([1]; rats M, iv (12 mg/kg)) was 66.60 ± 15.09, the “Basophil (RAS)” value (blood routine tests; F, ig (20 mg/kg)) was 1.43 ± 1.17 and the “Eosinophil (EOS)” value (blood routine tests; F, ig (20 mg/kg)) was 0.23 ± 0.12. The “Monocyte (MON)” value (blood routine tests; F, ig (20 mg/kg)) was 2.05 ± 1.74, the “Neutrophil (NEU)” value (blood routine tests; F, ig (20 mg/kg)) was 28.44 ± 10.20 and the RBC (blood routine tests; F, ig (20 mg/kg)) was 4.51 ± 3.30. The WBC (blood routine tests; F, ig (20 mg/kg)) was 4.44 ± 2.24, the PLT (blood routine tests; F, ig (20 mg/kg)) was 1146.00 ± 74.22 and the “Lymphocyte (LYM)” value (blood routine tests; F, ig (20 mg/kg)) was 66.45 ± 11.13. For the same compound, the HGB (blood routine tests; F, ig (20 mg/kg)) was 117.00 ± 19.70, the “Basophil (RAS)” value (blood routine tests; F, iv (12 mg/kg)) was 0.56 ± 0.15 and the “Eosinophil (EOS)” value (blood routine tests; F, iv (12 mg/kg)) was 0.76 ± 0.50. The “Monocyte (MON)” value (blood routine tests; F, iv (12 mg/kg)) was 3.62 ± 0.63, the “Neutrophil (NEU)” value (blood routine tests; F, iv (12 mg/kg)) was 21.44 ± 2.74 and the RBC (blood routine tests; F, iv (12 mg/kg)) was 6.95 ± 1.06. For the same compound, the WBC (blood routine tests; F, iv (12 mg/kg)) was 5.20 ± 1.53, the PLT (blood routine tests; F, iv (12 mg/kg)) was 1075.00 ± 41.70 and the “Lymphocyte (LYM)” value (blood routine tests; F, iv (12 mg/kg)) was 73.62 ± 2.16. The HGB (blood routine tests; F, iv (12 mg/kg)) was 125.60 ± 16.68, the “Basophil (RAS)” value (blood routine tests; M, ig (20 mg/kg)) was 0.62 ± 0.25 and the “Eosinophil (EOS)” value (blood routine tests; M, ig (20 mg/kg)) was 0.56 ± 0.50. The “Monocyte (MON)” value (blood routine tests; M, ig (20 mg/kg)) was 4.93 ± 1.91, the “Neutrophil (NEU)” value (blood routine tests; M, ig (20 mg/kg)) was 23.88 ± 5.48 and the RBC (blood routine tests; M, ig (20 mg/kg)) was 7.61 ± 0.28. For the same compound, the WBC (blood routine tests; M, ig (20 mg/kg)) was 5.18 ± 0.71, the PLT (blood routine tests; M, ig (20 mg/kg)) was 1258.20 ± 281.33 and the “Lymphocyte (LYM)” value (blood routine tests; M, ig (20 mg/kg)) was 70.84 ± 3.99. The HGB (blood routine tests; M, ig (20 mg/kg)) was 134.00 ± 19.13, the “Basophil (RAS)” value (blood routine tests; M, iv (12 mg/kg)) was 0.40 ± 0.12 and the “Eosinophil (EOS)” value (blood routine tests; M, iv (12 mg/kg)) was 0.60 ± 0.29. The “Monocyte (MON)” value (blood routine tests; M, iv (12 mg/kg)) was 3.80 ± 0.70, the “Neutrophil (NEU)” value (blood routine tests; M, iv (12 mg/kg)) was 22.16 ± 4.14 and the RBC (blood routine tests; M, iv (12 mg/kg)) was 7.86 ± 0.40. For the same compound, the WBC (blood routine tests; M, iv (12 mg/kg)) was 5.66 ± 2.23, the PLT (blood routine tests; M, iv (12 mg/kg)) was 1087.20 ± 56.34 and the “Lymphocyte (LYM)” value (blood routine tests; M, iv (12 mg/kg)) was 72.50 ± 4.66. The HGB (blood routine tests; M, iv (12 mg/kg)) was 141.40 ± 7.20, the “APTT” value ([2]; rats F, ig (20 mg/kg)) was 22.8 ± 5.9 s and the “FIB” value ([2]; rats F, ig (20 mg/kg)) was 7.22 ± 0.97 g/L. For the same compound, the “PT” value ([2]; rats F, ig (20 mg/kg)) was 17.5 ± 2.2 s, the “TT” value ([2]; rats F, ig (20 mg/kg)) was 27.3 ± 2.4 s and the “APTT” value ([2]; rats F, iv (12 mg/kg)) was 22.3 ± 8.5 s. For the same compound, the “FIB” value ([2]; rats F, iv (12 mg/kg)) was 6.63 ± 0.95 g/L, the “PT” value ([2]; rats F, iv (12 mg/kg)) was 18.8 ± 3.3 s and the “TT” value ([2]; rats F, iv (12 mg/kg)) was 27.5 ± 2.8 s. For the same compound, the “APTT” value ([2]; rats M, ig (20 mg/kg)) was 26.5 ± 3.2 s, the “FIB” value ([2]; rats M, ig (20 mg/kg)) was 7.03 ± 0.29 g/L and the “PT” value ([2]; rats M, ig (20 mg/kg)) was 16.4 ± 3.4 s. The “TT” value ([2]; rats M, ig (20 mg/kg)) was 26.9 ± 5.9 s, the “APTT” value ([2]; rats M, iv (12 mg/kg)) was 23.7 ± 2.1 s and the “FIB” value ([2]; rats M, iv (12 mg/kg)) was 6.28 ± 0.55 g/L. For the same compound, the “PT” value ([2]; rats M, iv (12 mg/kg)) was 17.5 ± 2.0 s, the “TT” value ([2]; rats M, iv (12 mg/kg)) was 27.1 ± 3.8 s and the solubility ([3]; methanol, organic solvent or mixture, methanol, read-out: Solubility in methanol) was 1890 mg/mL. The solubility ([3]; water, read-out: Solubility in water) was 2980 mg/mL, the “Stability” value ([4]; in methanol solution) was greater than 24 h and the “Stability” value ([4]; in water) was greater than 24 h. The “Sub-acute” value (Rat; ig) was greater than 20 mg/kg, the “Sub-acute” value (Rat; iv) was greater than 12 mg/kg and the LD50 ([5]; iv) was 246 mg/kg. For the same compound, the LD50 ([5]; po) was 726 mg/kg, the LD50 ([6]; iv) was 323 mg/kg and the LD50 ([6]; po) was 927 mg/kg.

Source: US11148991B2, “5-bromo-2-(alpha-hydroxypentyl)benzoic acid sodium salts in different crystal forms, and preparation method thereof” (priority 2013, dated 2021)
